Data set [1] can be described thus: β-sheet content by ATR-FT-IR. In kind it is physicochemical. The note with it: for b -sheet / %: Fig. S7 panel A, β-sheet content by ATR-FT-IR. The method, then: For ATR FT–IR spectroscopy measurements, 200 µL of the respective 1 mg/mL PNF solution was lyophilized and the resulting powder used for measurement. All spectra were recorded on a Bruker Tensor 27 spectrometer with a diamond crystal as ATR element (PIKE MiracleTM, spectral resolution 2 cm^-1). Every sample was measured with 64 scans. Data were analyzed with OriginLab software and calculation of β–sheet content was conducted according to a previous report. TEM. For TEM measurements 5 µL of PNF fibrils (1 mg/mL) were placed on copper grids coated with carbon and formvar layer (300 mesh, Plano GmbH). After 10 min incubation time, the grids were staining with 4% uranyl acetate solution for 2.5 min and washed with water. Measurements were performed on a Jeol 1400 electron microscope with 120 kV acceleration voltage. CR Assay. For the determination of the amount of peptide monomer converting into nanostructures the amine reactive dye fluorescamine was used analogous to a previous reported protocol. Briefly, 100 µL of the preformed PNF solution was centrifuged in a Vivaspin 500 tube (3 kDa MWCO) to separate fibers from free peptide monomer (16200 x g, 4 °C, 45 min). The filtrate and 100 μL of the non-filtered PNF sample were lyophilized and dissolved in 30 μL DMSO. 10 μL of the filtrate and non-filtered DMSO samples were submitted in a black UV Star® 384 microliter well–plates (Greiner bio–one) and 3 μL of the fluorescamine solution (10 mg/mL, DMSO) was added to measure the fluorescence enhancement. After 20 min of incubation at RT, fluorescence was recorded on an Infinite® M1000 PRO microplate reader (Tecan) at λem = 470 nm upon excitation at λex = 365 nm with 10 nm bandwidths and multiple reads per well (3×3). Measurements were repeated in triplicates and averaged with standard deviation. All values were calculated as n-fold fluorescence enhancement (DMSO only as a reference was set to 1). The conversion rate CR was defined according to the equation Eq. (3).3 CR=100−100×fluorescenceintensityfiltrate/fluorescenceintensityoriginal[%]

Data set [2] can be described thus: Turbidity, derived count rate of scattered light. Format: physicochemical. The note with it: for Count Rate / kcps: derived count rate of scattered light at 633 nm, 173°, from zeta-potential measurement, 0.1 mg/mL in 1 mM KCl after 1 d at 1 mg/mL in PBS, turbidity / microscopic aggregation, mean of triplicate; for Log Count Rate: log of derived count rate. The method in brief: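 One-day room-temperature aggregation at 1 mg/mL in PBS (pH 7.4) preceded measurement; samples then went into 1 mM KCl. Triplicates per sample, two independent experiments averaged.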

Data set [3] can be described thus: Turbidity, derived count rate of scattered light. In kind it is physicochemical. Particulars: for Count Rate: derived count rate of scattered light (turbidity); for Log10 Count Rate: turbidity, derived count rate of scattered light, data of Figure 2D.
Data set [4] in a line: Zeta-potential measurement. Format: physicochemical. In outline: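 Dissolve peptide from DMSO (10 mg/mL stock) into PBS pH 7.4 to 1 mg/mL. Incubate 1 d, RT. Dilute in 1 mM KCl just before reading. Derive zeta potential from mobility (Smoluchowski).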
Data set [5] is classed as physicochemical. Details: key to Fibril / Fibril Formation / TEM 2cat / Fibril: 1 = fibrils present; 0 non-fibrillar structures. Particulars: for Fibril / Fibril Formation: 1 mg/mL, uranyl acetate stain, qualitative.
Where [6] appears, read: Log10 of derived count rate of scattered light (turbidity).
The mark [7] stands for this setting: log10 of derived count rate of scattered light (turbidity).
Where [8] appears, read: turbidity, Log10 of derived count rate of scattered light, Figure 3A source data.
[9] abbreviates: zeta-potential of peptide, source data of Figure 2C.
Where [10] appears, read: zeta-potential of the peptide assemblies, mean, Figure 3A source data.
Where [11] appears, read: Fig S10 panel D, fibril category by TEM.
[12] abbreviates: TEM, 1 = fibrils present, 0 = non-fibrillar.
Setting [13] is: TEM, 1 = fibrils present, 0 = non-fibrillar structures.
[14] abbreviates: category: fibrils present or non-fibrillar.
Setting [15] is: zeta potential of peptide assemblies.

Read-outs that look alike come from different tables or passages of the source.

For the substance KIKIKIQINMWQ, the “b -sheet / %” value in data set [1] was 39.61%. The “Log10 Count Rate” value in data set [2] (setting [6]), in data set [2] (setting [7]), in data set [2] (setting [8]) and in data set [3] was 3.205 throughout. Besides, in data set [2], the “Count Rate / kcps” value was 1603 kcps. The “Count Rate” value in data set [3] turned out to be 1603.1. For the same substance, the Zeta-Pot. in data set [4] was 13.1. In addition, the “Zeta-Potential / mV” value is recorded as 13 mV in data set [4] (setting [9]) and 13.1 mV in data set [4] (setting [10]). Moreover, the “TEM 2cat” value in data set [5] (setting [11]) and in data set [5] (setting [14]) was 1 each time. Also, the “Fibril / Fibril Formation” value in data set [5] (TEM) was 1. The Fibril in data set [5] (setting [12]) and in data set [5] (setting [13]) was 1 in each case.
KFKFQFF: in data set [1], the “b -sheet / %” value is reported as 48.35%. For the same substance, the “Log10 Count Rate” value in data set [2] (setting [6]), in data set [2] (setting [7]), in data set [2] (setting [8]) and in data set [3] was 1.577 in each case. Besides, the “Count Rate / kcps” value in data set [2] was 38 kcps. Besides, the “Count Rate” value in data set [3] is 37.77. In addition, the Zeta-Pot. in data set [4] (setting [15]) came to 6.903. Further, the results for the “Zeta-Potential / mV” value in data set [4] (setting [9]) and in data set [4] (setting [10]) were 6.903 mV and 6.9 mV, respectively. Also, the “TEM 2cat” value in data set [5] (setting [11]) and in data set [5] (setting [14]) was 1 in each case. Besides, in data set [5] (TEM), the “Fibril / Fibril Formation” value stood at 1. Also, the Fibril in data set [5] (setting [12]) and in data set [5] (setting [13]) was 1 throughout.
Consider MKIKIQINMWQ, for which the “b -sheet / %” value in data set [1] is on record as 39.2%. In addition, the “Log10 Count Rate” value in data set [2] (setting [6]), in data set [2] (setting [7]), in data set [2] (setting [8]) and in data set [3] was 3.169 in each case. Further, the “Count Rate / kcps” value in data set [2] amounted to 1475 kcps. The “Count Rate” value in data set [3] came to 1475. In addition, the Zeta-Pot. in data set [4] (setting [15]) came out at 10.8. Also, the “Zeta-Potential / mV” value is listed as 11.2 mV in data set [4] (setting [9]) and 10.8 mV in data set [4] (setting [10]). Moreover, the “TEM 2cat” value in data set [5] (setting [11]) and in data set [5] (setting [14]) was 1 each time. For the same substance, the “Fibril / Fibril Formation” value in data set [5] (TEM) is given as 1. The Fibril in data set [5] (setting [12]) and in data set [5] (setting [13]) was 1 each time.
As to RGDKIKIQINMC, the “Log10 Count Rate” value in data set [2] (setting [6]), in data set [2] (setting [7]), in data set [2] (setting [8]) and in data set [3] was 3.147 throughout. Further, in data set [2], the “Count Rate / kcps” value is 1404 kcps. In addition, in data set [3], the “Count Rate” value came to 1404. For the same substance, the Zeta-Pot. in data set [4] (setting [15]) stood at 12.2. Also, the “Zeta-Potential / mV” value in data set [4] (setting [9]) was found to be 13.9 mV; in data set [4] (setting [10]), 12.2 mV. The “Fibril / Fibril Formation” value in data set [5] (TEM) is 1. Besides, the Fibril in data set [5] (setting [12]) and in data set [5] (setting [13]) was 1 throughout. Further, the “TEM 2cat” value in data set [5] (setting [14]) is 1.
In the case of EIEIQINMWQ, the “b -sheet / %” value in data set [1] is listed as 53.91%. The same substance came in with a beta sheet in data set [1] (peptides with TEM 2cat 0) of 54. The “Log10 Count Rate” value in data set [2] (setting [6]), in data set [2] (setting [7]), in data set [2] (setting [8]) and in data set [3] was 3.102 in each case. Also, the “Count Rate / kcps” value in data set [2] is listed as 1264 kcps. Also, the “Zeta Count Rate” value in data set [2] (peptides with TEM 2cat 0) is 1264 kcp. In addition, the “Count Rate” value in data set [3] came out at 1264. The Zeta-Pot. in data set [4] is -19.13. The “Zeta-Potential / mV” value in data set [4] (setting [9]) was -19.93 mV; in data set [4] (setting [10]), -19.13 mV. The “TEM 2cat” value in data set [5] (setting [11]) and in data set [5] (setting [14]) was 0 throughout. Besides, the Fibril in data set [5] (Fig S10 panel E), in data set [5] (setting [12]) and in data set [5] (setting [13]) was 0 in each case. In addition, the “Fibril / Fibril Formation” value in data set [5] (TEM) was 0.
Consider QCKFKQFF, for which the “b -sheet / %” value in data set [1] was 32.34%. The “Log10 Count Rate” value worked out at 2.353 in data set [2] (setting [6]); 2.353 in data set [2] (setting [8]); 2.353 in data set [2] (turbidity, log10 of derived count rate of scattered light); 2.353 in data set [3]. The “Count Rate / kcps” value in data set [2] was 225 kcps. Also, the “Count Rate” value in data set [3] is 225.4. Also, in data set [4], the Zeta-Pot. stood at 4.94. In addition, the “Zeta-Potential / mV” value in data set [4] (setting [9]) is reported as 3.089 mV; in data set [4] (setting [10]) it was 4.94 mV. The “TEM 2cat” value is on record as 1 in data set [5] (Fig S10 panel D) and 1 in data set [5] (FigS12 panel A, fibril category by TEM). Also, the Fibril stood at 1 in data set [5] (FigS12 panel B, TEM); 1 in data set [5] (setting [12]); 1 in data set [5] (setting [13]). Also, in data set [5] (TEM), the “Fibril / Fibril Formation” value stood at 1.
For CKIKQIINMWQ, the “b -sheet / %” value in data set [1] was 51%. The “Log10 Count Rate” value in data set [2] (setting [6]), in data set [2] (setting [7]), in data set [2] (logarithm of count rate in kcps), in data set [2] (setting [8]) and in data set [3] was 3.92 in each case. Also, the “Count Rate / kcps” value in data set [2] is 8317 kcps. Moreover, the “Count Rate” value in data set [3] is on record as 8317. In addition, the Zeta-Pot. in data set [4] (setting [15]) is 13.4. The “Zeta-Potential / mV” value in data set [4] (setting [9]) worked out at 10.55 mV; in data set [4] (setting [10]), 13.4 mV. Also, the “TEM 2cat” value in data set [5] (setting [11]) and in data set [5] (setting [14]) was 1 each time. Further, the Fibril in data set [5] (Fig S10 panel E), in data set [5] (setting [12]) and in data set [5] (setting [13]) was 1 each time. The “Fibril / Fibril Formation” value in data set [5] (TEM) came to 1.
As for HHHHKIKIKIKIWWWW [TM4], in data set [2] (Fig S8 panels A, C, asymmetric log errors), the “Log Count Rate” value worked out at 4.376. The “Log Count Rate” value in data set [2] (Fig S8 panels B, D) is on record as 4.376. In addition, the “Count Rate” value in data set [2] (Fig S8 panels B, D, turbidity, derived count rate of scattered light) is 23756.7. In addition, the “Zeta Count Rate Category” value in data set [2] (category 1 / 0, no key given) turned out to be 1. The “Zeta Count Rate / kcps” value in data set [2] (derived count rate of scattered light) is reported as 23756.66667 kcps. Also, in data set [4], the “Zeta Pot. / mV” value was 14.5 mV and the “Zeta category ( +1 = if > 4 mV;-1 = if < -4 mV; 0 = -4mV to 4 mV)” value is reported as 1 (+1 = if > 4 mV). In data set [4] (zeta potential of peptide, Fig S15 source data), the “Zeta-pot. / mV” value is recorded as 14.5 mV. Further, the “TEM: 1= fibrils, 0= aggregates (micelle), 0.5 = aggregates and fibrils, -1 = nothing obersved, STD prep” value in data set [5] (STD prep) is reported as 0.5.
As to KIKIQIMQWN, the “b -sheet / %” value in data set [1] stood at 40.38%. For the same substance, the “Log10 Count Rate” value in data set [2] (setting [6]), in data set [2] (setting [7]), in data set [2] (setting [8]) and in data set [3] was 3.343 in each case. Besides, the “Count Rate / kcps” value in data set [2] came out at 2203 kcps. Further, the “Count Rate” value in data set [3] is recorded as 2202.7. The Zeta-Pot. in data set [4] is recorded as 9.44. The “Zeta-Potential / mV” value in data set [4] (setting [9]) is recorded as 8.94 mV; in data set [4] (setting [10]), 9.44 mV. Also, the “TEM 2cat” value in data set [5] (setting [11]) and in data set [5] (setting [14]) was 1 each time. In data set [5] (TEM), the “Fibril / Fibril Formation” value was 1. The Fibril in data set [5] (setting [12]) and in data set [5] (setting [13]) was 1 in each case.
As to CKIKQIIRGD, the “Log10 Count Rate” value in data set [2] (setting [6]), in data set [2] (setting [7]), in data set [2] (setting [8]) and in data set [3] was 3.544 throughout. Besides, the “Count Rate / kcps” value in data set [2] is 3495 kcps. Moreover, the “Count Rate” value in data set [3] came out at 3495. In data set [4] (setting [15]), the Zeta-Pot. was found to be 13.2. The “Zeta-Potential / mV” value in data set [4] (setting [9]) and in data set [4] (setting [10]) was 13.2 mV in each case. For the same substance, the Fibril turned out to be 0 in data set [5] (FigS12 panel B, TEM); 0 in data set [5] (setting [12]); 0 in data set [5] (setting [13]). Further, in data set [5] (TEM), the “Fibril / Fibril Formation” value came to 0.
